The source of these data is patent publication US8440674B2, “Substituted pyrimidine compounds as RAF inhibitors and methods of use” (Amgen Inc., priority 2005, dated 2013).

Experiment [1] deals with A375 cells, a human melanoma cell line having the V600E mutant Braf. The experiment is described as follows: B-Raf cell-based assay (ratio of phospho-ERK1/2 to total ERK1/2). Conditions: A-375, 1 h, P-ERK/total ERK, 60 minute incubation, threshold list, read-out: IC50 for the inhibition of B-raf as measured by the cell-based assay. As to the method:
A cell-based assay was optimized to assay the ability of compounds to inhibit Braf activity in a whole cell context. […] The cell-based assay quantifies the ratio of phospho-ERK1/2 to total ERK1/2 and can thereby assay the cellular inhibition of Braf kinase activity.
A375 cells are plated into 96 well plates and grown to confluence. The cells are then changed into starve media (DMEM/0.1% BSA) for 60 minutes. Compounds in DMSO dose curves are then diluted in starve media and added to cells. […] After a 60 minute incubation the cells are fixed for 20 minutes at room temperature in 4% formaldehyde with 0.1%Triton X-100, protease and phosphatase inhibitors in PBS. The cells are washed four times in PBS then blocked for 60 minutes using a one to one mix of Odyssey blocking buffer (Li-Cor Biosciences, Inc) and PBS. Primary antibodies (rabbit anti-phospho p42/p44 MAPK (P-ERK1/2) from Cell Signaling Technology and mouse anti-ERK2 from Santa Cruz Biotechnology) are diluted in blocking buffer, added to the cells and incubated overnight at 4° C. The cells are then washed four times in PBS/0.1% Tween-20. Secondary antibodies (anti-mouse IRDye 800CW from Rockland, Inc and anti-rabbit AlexaFlour680 from Molecular Probes) are diluted in blocking buffer/0.5% Tween and incubated on cells for 60 minutes. After 4 washes in PBS/0.1% Tween-20 the microplate is scanned on an Odyssey Infrared Imager (Li-Cor Bioscience) which can read the signal given by the two secondary antibodies on their respective channels. The ratio of P-ERK/total ERK is determined and IC50s generated using Excel-XLfit software.

Another experiment concerns the target recombinant HuBraf V600E (Homo sapiens, UniProt P15056, V600E). The experiment is described as follows: B-raf Homogenous Time Resolved Fluorescent (HTRF) kinase assay. The format is biochemical. The note with it: substrate MEK1, 10 uM ATP; threshold lists; read-out: IC50 for the inhibition of B-raf as measured by the HTRF assay. As to the method:
A Homogeneous Time Resolved Fluorescence (HTRF) kinase assay was established to assay the ability of compounds to inhibit human mutant Braf kinase activity on the substrate MEK1. […] The final concentration of the kinase reaction buffer is 50 mM Tris-HCL pH 7.5, 10 mM MgCl2, 0.5% glucose, 0.5 mM DTT, 0.01% BSA.
The detection reaction proceeds for one hour and is read on a RubyStar (BMG Labtech) counter. IC50s for the test compounds are generated using Excel-XLfit software.
A general note: Time-resolved FRET reads energy transfer from a long-lived donor to a nearby acceptor.

Molecules are shown by their SMILES.

recombinant HuBraf V600E, sequence (P15056 whole entry V600E): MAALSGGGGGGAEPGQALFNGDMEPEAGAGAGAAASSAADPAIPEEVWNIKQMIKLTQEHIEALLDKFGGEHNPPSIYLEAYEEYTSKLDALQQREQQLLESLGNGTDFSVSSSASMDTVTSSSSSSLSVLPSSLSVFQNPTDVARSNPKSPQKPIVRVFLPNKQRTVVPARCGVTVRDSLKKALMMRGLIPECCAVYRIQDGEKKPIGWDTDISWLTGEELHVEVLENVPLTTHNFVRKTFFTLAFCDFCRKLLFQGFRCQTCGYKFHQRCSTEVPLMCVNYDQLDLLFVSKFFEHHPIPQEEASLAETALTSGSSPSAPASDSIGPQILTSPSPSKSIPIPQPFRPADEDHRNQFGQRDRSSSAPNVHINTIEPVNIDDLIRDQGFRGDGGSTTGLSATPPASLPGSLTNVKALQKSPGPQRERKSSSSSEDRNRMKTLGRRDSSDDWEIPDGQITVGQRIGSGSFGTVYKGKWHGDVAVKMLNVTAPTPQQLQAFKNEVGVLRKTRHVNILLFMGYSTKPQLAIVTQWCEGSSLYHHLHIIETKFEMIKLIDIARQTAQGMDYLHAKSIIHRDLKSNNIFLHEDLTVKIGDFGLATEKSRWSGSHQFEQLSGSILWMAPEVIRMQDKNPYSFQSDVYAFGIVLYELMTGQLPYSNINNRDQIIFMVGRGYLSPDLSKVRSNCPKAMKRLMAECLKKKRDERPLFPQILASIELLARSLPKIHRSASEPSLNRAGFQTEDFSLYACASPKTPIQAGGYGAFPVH

A word on the IC50: it is the concentration that inhibits the measured activity by half. Turning to `Cc1ccc2c(Nc3cccc(OC(F)(F)F)c3)nccc2c1Nc1ncccc1-c1ccncn1` [Example 18, 6-methyl-N^5-(3-(4-pyrimidinyl)-2-pyridinyl)-N^1-(3-((trifluoromethyl)oxy)phenyl)-1,5-isoquinolinediamine], the IC50 was at most 500 nM in experiment [1] and at most 250 nM on recombinant HuBraf V600E.
The matching figures for `COc1ccc(Nc2nccc3c(Nc4ncccc4-c4ccncn4)c(C)ccc23)cc1C(F)(F)F` [Example 19, 6-methyl-N^1-(4-(methyloxy)-3-(trifluoromethyl)phenyl)-N^5-(3-(4-pyrimidinyl)-2-pyridinyl)-1,5-isoquinolinediamine]: at most 500 nM and at most 250 nM.
With `CNc1ncc2cc(-c3c(C)ccc4c(Nc5cccc(C(F)(F)F)c5)nccc34)ccc2n1` [Example 24, N-methyl-6-(6-methyl-1-((3-(trifluoromethyl)phenyl)amino)-5-isoquinolinyl)-2-quinazolinamine], the IC50 in experiment [1] was at most 500 nM; on recombinant HuBraf V600E it was at most 250 nM.
In the same order, the values of `CNc1ncc2cc(-c3c(C)ccc4c(Nc5cccc(OC(C)C)c5)nccc34)ccc2n1` [Example 25, N-methyl-6-(6-methyl-1-((3-((1-methylethyl)oxy)phenyl)amino)-5-isoquinolinyl)-2-quinazolinamine] are at most 500 nM and at most 250 nM.
The matching figures for `CNc1ncc2cc(-c3c(C)ccc4c(Nc5cccc(C(C)C)c5)nccc34)ccc2n1` [Example 26, N-methyl-6-(6-methyl-1-((3-(1-methylethyl)phenyl)amino)-5-isoquinolinyl)-2-quinazolinamine]: at most 500 nM and at most 250 nM.
In the same order, the values of `CNc1ncc2cc(-c3c(C)ccc4c(Nc5cc(C(C)(C)C)on5)nccc34)ccc2n1` [Example 27, 6-(1-((5-(1,1-dimethylethyl)-3-isoxazolyl)amino)-6-methyl-5-isoquinolinyl)-N-methyl-2-quinazolinamine] are at most 500 nM and at most 250 nM.
As for `CNc1ncc2cc(-c3c(C)ccc4c(Nc5cccc(C(C)(C)C)c5)nccc34)ccc2n1` [Example 28, 6-(1-((3-(1,1-dimethylethyl)phenyl)amino)-6-methyl-5-isoquinolinyl)-N-methyl-2-quinazolinamine], the IC50 is at most 500 nM in experiment [1] and at most 250 nM on recombinant HuBraf V600E.
In the same order, the values of `CNc1ncc2cc(-c3c(C)ccc4c(Nc5cccc(Cl)c5)nccc34)ccc2n1` [Example 29, 6-(1-((3-chlorophenyl)amino)-6-methyl-5-isoquinolinyl)-N-methyl-2-quinazolinamine] are at most 500 nM and at most 250 nM.
The matching figures for `CNc1ncc2cc(-c3c(C)ccc4c(Nc5cccc(C#N)c5)nccc34)ccc2n1` [Example 30, 3-((6-methyl-5-(2-(methylamino)-6-quinazolinyl)-1-isoquinolinyl)amino)benzonitrile]: at most 500 nM and at most 250 nM.
Consider `CNc1ncc2cc(-c3c(C)ccc4c(Nc5cccc(OC(F)(F)F)c5)nccc34)ccc2n1` [Example 32, N-methyl-6-(6-methyl-1-((3-((trifluoromethyl)oxy)phenyl)amino)-5-isoquinolinyl)-2-quinazolinamine], for which the IC50 in experiment [1] is at most 500 nM; on recombinant HuBraf V600E, at most 250 nM.
The matching figures for `CNc1ncc2cc(-c3c(C)ccc4c(Nc5ccc6c(c5)N(C(C)=O)CC6(C)C)nccc34)ccc2n1` [Example 33, 6-(1-((1-acetyl-3,3-dimethyl-2,3-dihydro-1H-indol-6-yl)amino)-6-methyl-5-isoquinolinyl)-N-methyl-2-quinazolinamine]: at most 500 nM and at most 250 nM.
The matching figures for `CNc1ncc2cc(-c3c(C)ccc4c(Nc5cc(C(F)(F)F)ccn5)nccc34)ccc2n1` [Example 34, N-methyl-6-(6-methyl-1-((4-(trifluoromethyl)-2-pyridinyl)amino)-5-isoquinolinyl)-2-quinazolinamine]: at most 500 nM and at most 250 nM.
Take `CNc1ncc2cc(-c3c(C)ccc4c(Nc5ccc(OC)c(C(F)(F)F)c5)nccc34)ccc2n1` [Example 35, N-methyl-6-(6-methyl-1-((4-(methyloxy)-3-(trifluoromethyl)phenyl)amino)-5-isoquinolinyl)-2-quinazolinamine]: the concentration for half-maximal inhibition (IC50) was at most 500 nM in experiment [1] and at most 250 nM on recombinant HuBraf V600E.
In the same order, the values of `CNc1ncc2cc(-c3c(C)ccc4c(Nc5nnc(C6CC6)s5)nccc34)ccc2n1` [Example 36, 6-(1-((5-cyclopropyl-1,3,4-thiadiazol-2-yl)amino)-6-methyl-5-isoquinolinyl)-N-methyl-2-quinazolinamine] are at most 500 nM and at most 250 nM.
In the case of `CNc1ncc2cc(-c3c(C)ccc4c(Nc5ccc6[nH]ncc6c5)nccc34)ccc2n1` [Example 37, 6-(1-(1H-indazol-5-ylamino)-6-methyl-5-isoquinolinyl)-N-methyl-2-quinazolinamine], the IC50 is at most 500 nM in experiment [1] and at most 250 nM at recombinant HuBraf V600E.
As for `CNc1ncc2cc(-c3c(C)ccc4c(Nc5ccc6c(c5)CCC6)nccc34)ccc2n1` [Example 38, 6-(1-(2,3-dihydro-1H-inden-5-ylamino)-6-methyl-5-isoquinolinyl)-N-methyl-2-quinazolinamine], the half-inhibitory concentration (IC50) in experiment [1] is at most 500 nM; on recombinant HuBraf V600E, at most 250 nM.
In the case of `CNc1ncc2cc(-c3c(C)ccc4c(Nc5ccc6sc(C)nc6c5)nccc34)ccc2n1` [Example 39, N-methyl-6-(6-methyl-1-((2-methyl-1,3-benzothiazol-5-yl)amino)-5-isoquinolinyl)-2-quinazolinamine], the figures for the IC50 (in experiment [1]; on recombinant HuBraf V600E) were at most 500 nM and at most 250 nM, respectively.
The matching figures for `CNc1ncc2cc(-c3c(C)ccc4c(Nc5ccc(F)c(OC(C)C)c5)nccc34)ccc2n1` [Example 40, 6-(1-((4-fluoro-3-((1-methylethyl)oxy)phenyl)amino)-6-methyl-5-isoquinolinyl)-N-methyl-2-quinazolinamine]: at most 500 nM and at most 250 nM.
As for `CNc1ncc2cc(-c3c(C)ccc4c(Nc5cncc(C(F)(F)F)c5)nccc34)ccc2n1` [Example 41, N-methyl-6-(6-methyl-1-((5-(trifluoromethyl)-3-pyridinyl)amino)-5-isoquinolinyl)-2-quinazolinamine], the IC50 was at most 500 nM in experiment [1] and at most 250 nM at recombinant HuBraf V600E.
In the same order, the values of `CNc1ncc2cc(-c3c(C)ccc4c(Nc5cccc(OC(F)(F)F)c5)ncnc34)ccc2n1` [Example 50, N^2,7′-dimethyl-N^4′-(3-((trifluoromethyl)oxy)phenyl)-6,8′-biquinazoline-2,4′-diamine] are at most 500 nM and at most 250 nM.
For `CNc1ncc2cc(-c3c(C)ccc4c(Nc5cccc(C(F)(F)F)c5)ncnc34)ccc2n1` [Example 51, N^2,7′-dimethyl-N^4′-(3-(trifluoromethyl)phenyl)-6,8′-biquinazoline-2,4′-diamine], the IC50 in experiment [1] is at most 500 nM; on recombinant HuBraf V600E, at most 250 nM.
The matching figures for `CNc1ncc2cc(-c3c(C)ccc4c(Nc5ccc(OC)c(C(F)(F)F)c5)ncnc34)ccc2n1` [Example 52, N^2,7′-dimethyl-N^4′-(4-(methyloxy)-3-(trifluoromethyl)phenyl)-6,8′-biquinazoline-2,4′-diamine]: at most 500 nM and at most 250 nM.
In the same order, the values of `CNc1ncc2cc(-c3c(C)ccc4c(Nc5cc(C(C)(C)C)nn5C)ncnc34)ccc2n1` [Example 53, N^4′-(3-(1,1-dimethylethyl)-1-methyl-1H-pyrazol-5-yl)-N^2,7′-dimethyl-6,8′-biquinazoline-2,4′-diamine] are at most 500 nM and at most 250 nM.
In the same order, the values of `CNc1ncc2cc(-c3c(C)ccc4c(Nc5ccc6c(c5)N(C(C)=O)CC6(C)C)ncnc34)ccc2n1` [Example 54, N^4′-(1-acetyl-3,3-dimethyl-2,3-dihydro-1H-indol-6-yl)-N^2,7′-dimethyl-6,8′-biquinazoline-2,4′-diamine] are at most 500 nM and at most 250 nM.
Regarding `CNc1ncc2cc(-c3c(C)ccc4c(Nc5ccc(Cl)c(C(F)(F)F)c5)ncnc34)ccc2n1` [Example 55, N^4′-(4-chloro-3-(trifluoromethyl)phenyl)-N^2,7′-dimethyl-6,8′-biquinazoline-2,4′-diamine], the IC50 in experiment [1] is at most 500 nM; at recombinant HuBraf V600E, at most 250 nM.
In the same order, the values of `CNc1ncc2cc(-c3c(C)ccc4c(Nc5cncc(C(F)(F)F)c5)ncnc34)ccc2n1` [Example 56, N^2,7′-dimethyl-N^4′-(5-(trifluoromethyl)-3-pyridinyl)-6,8′-biquinazoline-2,4′-diamine] are at most 500 nM and at most 250 nM.
